Data taken from the supplement of paper PMC10307832.

How the values were obtained:
Experiment in all cases: relative viability (nuclei count vs DMSO), 5 days (fraction); higher = more cells survive
[1] = compound: CC1CC(=O)N(C2=CN=C(N=C2N1C3CCCC3)NC4=C(C=C(C=C4)C(=O)NC5CCN(CC5)C)OC)C [NPK76-II-72-1] + Cc1cc(Nc2cc(N3CCN(C)CC3)nc(Sc3ccc(NC(=O)C4CC4)cc3)n2)n[nH]1 [Tozasertib] (partner 0.1 µM)
How it was run: (§1)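 Relative viability equals treated-well nuclei counts divided by vehicle-well nuclei counts. Counts came from 4× images of lung cancer cell lines grown in 1536-well plates for 5 days after pin-tool dosing on the day after seeding. Dosing used one drug alone or a fixed anchor-drug dose plus five library-drug doses (not always all listed) in √10 steps, and values are medians of duplicate plates.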

[2] = compound: CC1CC(=O)N(C2=CN=C(N=C2N1C3CCCC3)NC4=C(C=C(C=C4)C(=O)NC5CCN(CC5)C)OC)C [NPK76-II-72-1] + N=C(N)NC(=N)NCCc1ccccc1 [Phenformin] (partner 250 µM)
How it was run: as §1

[3] = compound: CC[C@@H]1C(=O)N(C)c2cnc(Nc3ccc(C(=O)NC4CCN(C)CC4)cc3OC)nc2N1C1CCCC1 [BI-2536] + CC(C)C[C@H](NC(=O)[C@H](Cc1ccccc1)NC(=O)c1cnccn1)B(O)O [Bortezomib] (partner 0.002 µM)
How it was run: as §1

[4] = compound: CC[C@@H]1C(=O)N(C)c2cnc(Nc3ccc(C(=O)NC4CCN(C)CC4)cc3OC)nc2N1C1CCCC1 [BI-2536] + CS(=O)(=O)CCNCc1ccc(-c2ccc3ncnc(Nc4ccc(OCc5cccc(F)c5)c(Cl)c4)c3c2)o1 [Lapatinib] (partner 2 µM)
How it was run: as §1

Cell Line	relative viability ([1]; first compound 0.01 µM)	relative viability ([1]; first compound 0.03162 µM)	relative viability ([1]; first compound 0.1 µM)	relative viability ([1]; first compound 0.3162 µM)	relative viability ([1]; first compound 1 µM)	relative viability ([2]; first compound 0.01 µM)	relative viability ([2]; first compound 0.03162 µM)	relative viability ([2]; first compound 0.1 µM)	relative viability ([2]; first compound 0.3162 µM)	relative viability ([2]; first compound 1 µM)	relative viability ([3]; first compound 0.01 µM)	relative viability ([3]; first compound 0.03162 µM)	relative viability ([3]; first compound 0.1 µM)	relative viability ([3]; first compound 0.3162 µM)	relative viability ([3]; first compound 1 µM)	relative viability ([4]; first compound 0.01 µM)	relative viability ([4]; first compound 0.03162 µM)	relative viability ([4]; first compound 0.1 µM)	relative viability ([4]; first compound 0.3162 µM)	relative viability ([4]; first compound 1 µM)
201T	0.884	0.948	0.984	0.939	0.976	0.423	0.461	0.407	0.461	0.433	1.11	1.12	1.07	1.09	0.367	0.946	1.03	1.03	1.04	0.38
A549							0.136	0.222	0.155	0.192						1.05	0.813	0.476	0.053	0.0394
A-427	0.222	0.23	0.207	0.192	0.252	0.263	0.309	0.341	0.295	0.397	0.955	1.04	0.763	0.123	0.1	0.905	1.08	1	0.969	0.135
ABC-1	0.185	0.179	0.172	0.21	0.155	0.264	0.223	0.202	0.258	0.28	0.252	0.29	0.265	0.242	0.213	1.23	1.39	1.04	0.643	0.529
BEN	0.462	0.46	0.551	0.496	0.552	0.229	0.228	0.276	0.245	0.253	0.61	0.896	0.43	0.223	0.287	0.631	0.578	0.479	0.228	0.235
CAL-12T	0.33	0.324	0.314	0.25	0.363	0.563	0.56	0.562	0.554	0.619	0.926	0.823	0.393	0.182	0.192	0.646	0.799	0.582	0.186	0.177
COR-L23	0.195	0.23	0.218	0.182	0.192	0.397	0.453	0.491	0.434	0.438	1.08	0.901	0.27		0.101	1.05	0.776	0.357	0.0913	0.102
COR-L 105	0.351	0.348	0.305	0.407	0.328	0.491	0.541	0.409	0.474	0.551	0.764	0.761	0.344	0.245	0.237	0.309	0.364	0.271	0.248	0.269
Calu-6											0.871	0.62	0.183	0.144	0.141	0.957	0.666	0.703	0.122	0.132
ChaGo-K-1	0.239	0.256	0.238	0.225	0.231	0.472	0.575	0.544	0.476	0.478	0.905	0.852	0.469	0.301	0.281					
EBC-1											0.477	0.46	0.222	0.217	0.175	0.21	0.194	0.203	0.174	0.155
EKVX	0.335	0.339	0.416	0.379	0.474	0.221	0.237	0.225	0.147	0.252	0.976	1.16	1.03	0.164	0.148	0.199	0.205	0.205	0.142	0.117
EMC-BAC-2	0.298	0.339	0.296	0.294	0.316	0.521	0.546	0.54	0.55	0.634	1.08	1.11	1.06	0.628	0.172	0.881	0.837	0.767	0.182	0.154
EPLC-272H	0.278		0.281	0.229	0.229	0.304		0.259	0.229	0.343	0.939	0.891		0.786	0.101	0.894	0.828		0.483	0.11
H3255	0.623	0.729	0.734	0.434	0.673	0.365	0.326	0.376	0.31	0.37	0.824	0.679	0.36	0.241	0.276	0.256	0.225	0.076	0.117	0.143
